From publication PMC11758266, “Lipid-Modulated, Graduated Inhibition of N-Glycosylation Pathway Priming Suggests Wide Tolerance of ER Proteostasis to Stress” (ACS Central Science, 2024)

Tests used:
DPAGT1 [1] = target: T1, DPAGT1 (Homo sapiens, UniProt Q9H3H5); test: Heat-induced denaturation assay of DPAGT1 with bound ligand; type: binding; conditions: heat-induced denaturation; DPAGT1 alone 51.7 ± 0.2 °C
T1 sequence (Q9H3H5 1-408): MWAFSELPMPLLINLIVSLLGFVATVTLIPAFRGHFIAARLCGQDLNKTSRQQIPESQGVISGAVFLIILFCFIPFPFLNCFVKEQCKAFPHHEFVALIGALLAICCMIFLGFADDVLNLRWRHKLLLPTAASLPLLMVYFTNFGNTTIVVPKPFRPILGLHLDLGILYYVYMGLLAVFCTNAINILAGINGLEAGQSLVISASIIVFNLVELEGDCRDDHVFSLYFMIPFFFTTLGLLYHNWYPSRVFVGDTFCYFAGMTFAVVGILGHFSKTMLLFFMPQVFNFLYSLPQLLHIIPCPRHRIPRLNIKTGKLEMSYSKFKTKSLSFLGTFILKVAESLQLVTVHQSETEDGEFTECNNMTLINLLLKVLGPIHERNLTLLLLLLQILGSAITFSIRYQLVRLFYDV
Excerpt: The structure of DPAGT1 in complex with the archetypal scaffold natural product tunicamycin[21] […] Trp122 moves so as to use its indole moiety to hydrophobically provide a binding “cap” or “lid” over the proximal portion of the 10′-N lipid chain.

DPAGT1 [2] = target: T2, DPAGT1 (Homo sapiens, UniProt Q9H3H5); test: DPAGT1 radiometric in vitro activity assay (end point, phosphorimaging of radio-TLC); type: biochemical; conditions: for % Activity of DPAGT1 in the presence of a tunicamycin analogue compared to a negative control (GFB): Table S1, analogue 1 µM, DPAGT1 1 µM, dolichyl monophosphate 50 µM, UDP-GlcNAc(1-14C) 50 µM, 37 °C, 21 min, three biological replicates; for DPAGT1 inhibition (in words): inhibitor 1 µM, enzyme:inhibitor 1:1, substrates 50 µM
T2 construct: full-length DPAGT1 bearing an additional tobacco etch virus (TEV) protease-cleavable N-terminal His6 tag; His6 with TEV protease cleavage site ([…]/S leader) (N, cleaved yes); made in house; host or cells: Spodoptera frugiperda Sf9 insect cells (baculovirus, pFB-LIC-Bse vector)
T2 sequence (Q9H3H5 with tags, fused parts or gaps): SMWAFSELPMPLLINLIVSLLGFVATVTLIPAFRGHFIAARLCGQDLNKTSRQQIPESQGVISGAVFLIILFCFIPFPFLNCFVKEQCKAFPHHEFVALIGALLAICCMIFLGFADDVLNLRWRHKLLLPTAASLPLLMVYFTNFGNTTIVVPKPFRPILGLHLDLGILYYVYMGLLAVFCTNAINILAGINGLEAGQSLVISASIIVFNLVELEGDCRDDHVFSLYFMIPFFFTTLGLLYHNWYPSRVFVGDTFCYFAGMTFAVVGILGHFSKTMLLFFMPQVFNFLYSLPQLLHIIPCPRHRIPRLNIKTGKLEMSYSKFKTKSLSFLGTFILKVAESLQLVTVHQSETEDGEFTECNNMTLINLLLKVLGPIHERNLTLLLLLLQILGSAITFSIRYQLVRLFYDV
Excerpt: Figure 2 Design, synthesis and in vitro inhibitory activity of lipid-altered tunicamycins. (A) Structure of DPAGT1 in complex with tunicamycin[21] showing key interactions primarily along TMH5 that in concert with a Trp122 “lid” create the lipid-engagement site (blue). This engagement contrasts with a small, gated pocket below bounded primarily by Leu293 in which only smaller moieties (here an acetamide) are accommodated (red). (B) Guided by this structure, as an apparent snapshot of a Michaelis complex-like mode of binding, modulation at two acyl sites in the core scaffold was explored. […] Semisynthesis allowed generation of graduated lipid tunicamycin analogues through regiochemical differentiation in carbamoylation to generate two key divergent intermediates: Tun-0E,0G and Tun-0E,2G. Subsequent differential acylations allow for generation of both symmetric and asymmetric Tun-XE,YG analogues. Reagents and conditions: (a) Ac2O, pyridine; (b) Boc2O, DMAP, THF; (c) NaOMe, MeOH; (d) 4 M HCl in dioxane, MeOH; (e) HATU, DIPEA, octanoic acid, DMF; (f) HATU, DIPEA, carboxylic acid; (g) HATU, DIPEA, 2 × carboxylic acid. (C) Residual % in vitro activity of DPAGT1 following incubation with analogues [DPAGT1 ([…]), MgCl2 (5 mM), Tun analogue ([…]), dolichol phosphate ([…]), and UDP-GlcNAc(1-^14C) ([…]) in 1% OGNG/CHS/cardiolipin] was assessed through end point assay at 37 °C via phosphorimaging. These were determined on the basis of three biological replicates, each using three technical replicates. Error bars shown are standard deviations.
The intended targeting and graduated modulation of DPAGT1’s PNPT activity was assessed in vitro using a highly pure recapitulated source. Briefly, full-length DPAGT1 bearing an additional tobacco etch virus (TEV) protease-cleavable N-terminal His6 tag was expressed using a baculovirus (DH10Bac)/insect cell (Spodoptera frugiperda Sf9) system using a pFB-LIC-Bse expression vector. DPAGT1 is an integral transmembrane enzyme, and thus, after harvesting and lysis, protein was extracted from the expression host membrane fraction using octyl glucose neopentyl glycol (OGNG) (1% w/v) and cholesterylhemisuccinate (CHS) (0.1% w/v) before isolation and purification by immobilized metal affinity chromatography (IMAC) using a Co^2+-charged (“TALON”) resin and elution with an imidazole gradient. To ensure that there were no confounding effects of the His6 tag, this was then cleaved with TEV protease followed by reverse IMAC and size exclusion chromatography in sequence.
Radiometric bisubstrate analyses allowed excellent sensitivity under the conditions necessary for proper recapitulation of the activity. Purified DPAGT1 (1 μM) was incubated with both substrates, dolichol monophosphate and radiolabeled UDP-N-acetyl-D-[1-^14C]glucosamine, at 50 μM, and the activity was determined directly by end point phosphor detection of product dolichol-PP-N-acetyl-D-[1-^14C]glucosamine formation.
MgCl2, 10 mM imidazole (pH 8.0), 200 mM NaCl , 2 mM TCEP (added fresh), 5% Glycerol, 0.18% OGNG, 0.01 8% CHS, 0.0036% cardiolipin) and the protein was eluted with WB supplemented with 250 mM imidazole (pH 8.0). The eluted protein was desalted using PD-10 columns (GE Healthcare) pre-equilibrated with gel filtration buffer (GFB: 20 mM HEPES (pH […]
cardiolipin). Desalted protein was subsequently treated with 10:1 TEV protease (w:w, protein:enzyme) overnight at 4 ° C. The TEV protease treated protein was separated from the 6-His-tagged enzymes and uncleaved DPAGT1 by incubation for 1 h with Talon resin (prepared as described above) at 4 °C for 1 h. The resin was collected in a column, the flowthrough collected and the protein sample was centrifuged at 21,500 rpm in a Beckman TA25.5 rotor for 10 min at 4 ° C. The supernatant was then concentrated to 0.5 mL using a 30 kDa cutoff PES concentrator (Corning), with mixing every 5 mins during concentration. The […]

ATF4 = ATF4 high-content imaging assay in primary human dermal fibroblasts; type: cell-based; conditions: 6 h, Figures S8–S12
Procedure: A targeted panel of tunicamycin analogues was tested in the ATF4 High Content Imaging assay to assess their ER stress generating ability in a primary cell line. Normal adult human dermal fibroblasts (NHDF-Ad, Lonza) were plated in a 96-well Phenoplate (PerkinElmer) at a seeding density of 10,000 cells per well in fibroblast growth medium (containing fibroblast basal medium, 10% FBS, 0.1% insulin, 0.1% hFGF-B, 0.1% Gentamicin/Amphotericin) and incubated at 37°C, 5% CO2. Treatment with pre-diluted compounds was performed after 24 hrs with final concentrations ranging from 10 µM – 5 nM (final DMSO concentration was 0.3%). Low control (0.3% DMSO final conc.) and high control (0.3 µM tunicamycin final conc.) wells were again included for assay normalization. Treated cells were incubated for 6 hrs at 37°C, 5% CO2 before fixing (4% PFA in PBS, 20 min at room temperature followed by washing (3x) with PBS). Direct ATF4 immunofluorescence staining was then performed, whereby cells were treated with a Coralite Plus 488-conjugated ATF4 Polyclonal antibody (CL488-10835, Proteintech) in a 1:100 dilution of Perm-block buffer (10% FBS, 0.3% TritonX-100 in PBS) for 2 hrs. Nuclei staining was then performed with DRAQ5 dye (ab108410, Abcam) at 1:1000 in PBS. Plates were imaged on a Leica SP8 confocal microscope equipped with 488 nm and 633 nm excitation and images were analysed using script-based algorithms as described for HEK cells above. […]

His-tagged IgG-Fc domain = test: In cell glycoprotein inhibition assay (IgG-Fc expression, SDS-PAGE and Western blot); type: cell-based, human; conditions: HEK293T cells, 3 days, analogue 10 µM down to 0.5 nM (Tun-8E,2G 300 µM down to 15 nM), Figure S13

Compound | Tm,1/2 of DPAGT1 bound to ligand (DPAGT1 [1]) | % Activity of DPAGT1 in the presence of a tunicamycin analogue compared to a negative control (GFB) (DPAGT1 [2]) | DPAGT1 inhibition (in words) (DPAGT1 [2]) | increase in ATF4 (in words) (ATF4) | glycosylation state of expressed IgG-Fc (in words) (His-tagged IgG-Fc domain)
dolichol-1-phosphate [Dol-1-P] | 58.5 ± 0.3 °C |  |  |  | 
CCCCCCCC(=O)N[C@H]1[C@H](O[C@H]2O[C@H](CO)[C@@H](O)[C@H](O)[C@H]2NC(=O)CCCCCCC)O[C@H](C[C@@H](O)[C@H]2O[C@@H](n3ccc(=O)[nH]c3=O)[C@H](O)[C@@H]2O)[C@H](O)[C@@H]1O [Tun-8E,8G] |  | 90.0% | little to no significant inhibition | only Tun itself leads to an increase in ATF4 | expression of intact glycosylated protein
CCCCCCCCC(=O)N[C@H]1[C@@H](O[C@@H]2O[C@H](C[C@@H](O)[C@H]3O[C@@H](n4ccc(=O)[nH]c4=O)[C@H](O)[C@@H]3O)[C@H](O)[C@H](O)[C@H]2NC(=O)CC(C)C)O[C@H](CO)[C@@H](O)[C@@H]1O [Tun-i5E,9G] |  | 90.7% | little to no significant inhibition |  | 
CCCCCCCCC(=O)N[C@H]1[C@H](O[C@H]2O[C@H](CO)[C@@H](O)[C@H](O)[C@H]2NC(=O)CCC)O[C@H](C[C@@H](O)[C@H]2O[C@@H](n3ccc(=O)[nH]c3=O)[C@H](O)[C@@H]2O)[C@H](O)[C@@H]1O [Tun-9E,4G] |  | 83.6% | did not cause a significant reduction in DPAGT1 activity |  | 
